According to US8933230B2, “Phosphorus-containing group-substituted quinoline, its preparation process, medical composition containing the compounds and application” (priority 2011, dated 2015):

Key:
Experiment in all cases: KinomeScan kinase panel
Assay type in all cases: binding
PIM3 = target: T1, PIM3 (Homo sapiens, UniProt Q86V86)
T1 construct: purchased DiscoveRx Corporation (KinomeScan)
Procedure, shortened: (§1)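 Inhibitory effect at a 1000 nM single dose, determined in KinomeScan's 442-kinase panel.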

DRAK1 = target: T2, DRAK1 (Homo sapiens, UniProt Q9UEE5)
T2 construct: purchased DiscoveRx Corporation (KinomeScan)
Procedure, shortened: as §1

CAMK1 = target: T3, CAMK1 (Homo sapiens, UniProt Q14012)
T3 construct: purchased DiscoveRx Corporation (KinomeScan)
T3 sequence (Q14012 whole entry): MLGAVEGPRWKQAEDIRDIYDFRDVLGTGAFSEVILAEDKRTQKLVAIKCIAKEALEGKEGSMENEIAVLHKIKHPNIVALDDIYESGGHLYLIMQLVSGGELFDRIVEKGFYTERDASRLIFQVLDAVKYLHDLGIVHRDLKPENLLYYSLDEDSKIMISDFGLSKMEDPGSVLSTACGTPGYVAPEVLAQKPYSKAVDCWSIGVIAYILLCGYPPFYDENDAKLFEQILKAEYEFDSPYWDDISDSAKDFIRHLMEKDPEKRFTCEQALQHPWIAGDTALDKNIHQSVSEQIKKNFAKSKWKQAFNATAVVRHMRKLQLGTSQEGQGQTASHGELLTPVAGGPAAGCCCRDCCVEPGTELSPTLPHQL
Procedure, shortened: as §1

CAMK2D = target: T4, CAMK2D (Homo sapiens, UniProt Q13557)
T4 construct: purchased DiscoveRx Corporation (KinomeScan)
Procedure, shortened: as §1

MLCK = target: T5, MLCK (Homo sapiens, UniProt Q32MK0)
T5 construct: purchased DiscoveRx Corporation (KinomeScan)
Procedure, shortened: as §1

[1] = target: T6, ABL1(F317L)-phosphorylated (Homo sapiens, UniProt P00519, F317L)
T6 construct: purchased DiscoveRx Corporation (KinomeScan)
Procedure, shortened: as §1

PLK1 = target: T7, PLK1 (Homo sapiens, UniProt P53350)
T7 construct: purchased DiscoveRx Corporation (KinomeScan)
Procedure, shortened: as §1

DLK = target: T8, DLK (Homo sapiens, UniProt Q12852)
T8 construct: purchased DiscoveRx Corporation (KinomeScan)
Procedure, shortened: as §1

PRKD3 = target: T9, PRKD3 (Homo sapiens, UniProt O94806)
T9 construct: purchased DiscoveRx Corporation (KinomeScan)
T9 sequence (O94806 whole entry): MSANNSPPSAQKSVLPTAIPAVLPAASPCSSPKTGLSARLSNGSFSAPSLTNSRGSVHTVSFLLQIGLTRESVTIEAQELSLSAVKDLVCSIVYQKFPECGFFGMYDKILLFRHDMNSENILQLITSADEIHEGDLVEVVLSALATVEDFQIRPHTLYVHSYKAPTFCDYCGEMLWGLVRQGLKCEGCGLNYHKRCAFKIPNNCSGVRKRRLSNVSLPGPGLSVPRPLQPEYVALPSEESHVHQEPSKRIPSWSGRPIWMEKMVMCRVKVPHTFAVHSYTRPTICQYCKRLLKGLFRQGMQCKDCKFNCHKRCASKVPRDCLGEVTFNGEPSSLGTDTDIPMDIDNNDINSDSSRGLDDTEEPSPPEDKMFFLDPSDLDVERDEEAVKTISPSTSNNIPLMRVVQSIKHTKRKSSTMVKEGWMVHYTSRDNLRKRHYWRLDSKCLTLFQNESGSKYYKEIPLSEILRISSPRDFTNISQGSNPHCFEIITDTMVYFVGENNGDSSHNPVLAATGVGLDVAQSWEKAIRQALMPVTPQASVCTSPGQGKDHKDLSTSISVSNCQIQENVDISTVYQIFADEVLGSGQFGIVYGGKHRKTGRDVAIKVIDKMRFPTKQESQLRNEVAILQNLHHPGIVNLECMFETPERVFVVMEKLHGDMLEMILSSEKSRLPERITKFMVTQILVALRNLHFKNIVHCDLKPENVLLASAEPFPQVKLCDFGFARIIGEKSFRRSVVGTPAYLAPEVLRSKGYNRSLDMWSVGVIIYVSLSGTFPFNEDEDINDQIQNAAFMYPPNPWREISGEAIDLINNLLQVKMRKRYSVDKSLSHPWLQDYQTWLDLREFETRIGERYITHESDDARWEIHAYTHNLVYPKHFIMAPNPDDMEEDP
Procedure, shortened: as §1

P38-beta = target: T10, P38-beta (Homo sapiens, UniProt Q15759)
T10 construct: purchased DiscoveRx Corporation (KinomeScan panel)
Procedure, shortened: as §1

PKMYT1 = target: T11, PKMYT1 (Homo sapiens, UniProt Q99640)
T11 construct: purchased DiscoveRx Corporation (KinomeScan)
Procedure, shortened: as §1

FLT3(D835H) = target: T12, FLT3(D835H) (Homo sapiens, UniProt P36888, D835H)
T12 construct: purchased DiscoveRx Corporation (KinomeScan)
Procedure, shortened: as §1

PIK3CA(E545A) = target: T13, PIK3CA(E545A) (Homo sapiens, UniProt P42336, E545A)
T13 construct: purchased DiscoveRx Corporation (KinomeScan)
Procedure, shortened: as §1

PIK3CA (H1047L) = target: T14, PIK3CA (H1047L) (Homo sapiens, UniProt P42336, H1047L)
T14 construct: purchased DiscoveRx Corporation (KinomeScan)
Procedure, shortened: as §1

CDKL2 = target: T15, CDKL2 (Homo sapiens, UniProt Q92772)
T15 construct: purchased DiscoveRx Corporation (KinomeScan)
T15 sequence (Q92772 whole entry): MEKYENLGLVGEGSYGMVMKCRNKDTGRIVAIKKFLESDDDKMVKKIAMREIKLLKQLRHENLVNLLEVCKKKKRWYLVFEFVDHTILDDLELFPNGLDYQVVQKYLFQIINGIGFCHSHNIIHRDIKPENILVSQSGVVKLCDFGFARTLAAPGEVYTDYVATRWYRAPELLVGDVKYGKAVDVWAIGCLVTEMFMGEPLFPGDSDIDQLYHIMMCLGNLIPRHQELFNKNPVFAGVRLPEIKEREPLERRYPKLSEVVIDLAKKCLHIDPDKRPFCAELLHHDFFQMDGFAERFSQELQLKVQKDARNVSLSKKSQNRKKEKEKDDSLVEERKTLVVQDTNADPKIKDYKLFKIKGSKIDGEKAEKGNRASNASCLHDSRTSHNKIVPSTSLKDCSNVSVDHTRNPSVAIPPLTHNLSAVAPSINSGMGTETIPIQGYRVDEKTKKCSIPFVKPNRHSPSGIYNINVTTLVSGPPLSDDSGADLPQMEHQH
Procedure, shortened: as §1

IKK-beta = target: T16, IKK-beta (Homo sapiens, UniProt O14920)
T16 construct: purchased DiscoveRx Corporation (KinomeScan)
Procedure, shortened: as §1

BMPR1A = target: T17, BMPR1A (Homo sapiens, UniProt P36894)
T17 construct: purchased DiscoveRx Corporation (KinomeScan)
T17 sequence (P36894 24-532): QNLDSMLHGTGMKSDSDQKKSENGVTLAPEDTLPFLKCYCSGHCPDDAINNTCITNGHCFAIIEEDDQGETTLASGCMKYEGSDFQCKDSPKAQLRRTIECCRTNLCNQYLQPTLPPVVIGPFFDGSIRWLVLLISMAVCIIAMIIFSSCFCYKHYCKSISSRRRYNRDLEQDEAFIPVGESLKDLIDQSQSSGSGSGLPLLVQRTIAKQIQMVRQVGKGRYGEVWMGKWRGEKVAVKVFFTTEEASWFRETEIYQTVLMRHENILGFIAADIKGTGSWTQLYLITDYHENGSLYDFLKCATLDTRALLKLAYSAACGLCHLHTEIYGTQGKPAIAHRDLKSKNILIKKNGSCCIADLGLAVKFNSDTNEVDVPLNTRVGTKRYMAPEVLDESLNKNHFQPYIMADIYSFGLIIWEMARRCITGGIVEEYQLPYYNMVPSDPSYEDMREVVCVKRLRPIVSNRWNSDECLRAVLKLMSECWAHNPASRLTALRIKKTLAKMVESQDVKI
Procedure, shortened: as §1

PKA7 = target: T18, PKA7 (Homo sapiens, UniProt Q9P286)
T18 construct: purchased DiscoveRx Corporation (KinomeScan panel)
T18 sequence (Q9P286 whole entry): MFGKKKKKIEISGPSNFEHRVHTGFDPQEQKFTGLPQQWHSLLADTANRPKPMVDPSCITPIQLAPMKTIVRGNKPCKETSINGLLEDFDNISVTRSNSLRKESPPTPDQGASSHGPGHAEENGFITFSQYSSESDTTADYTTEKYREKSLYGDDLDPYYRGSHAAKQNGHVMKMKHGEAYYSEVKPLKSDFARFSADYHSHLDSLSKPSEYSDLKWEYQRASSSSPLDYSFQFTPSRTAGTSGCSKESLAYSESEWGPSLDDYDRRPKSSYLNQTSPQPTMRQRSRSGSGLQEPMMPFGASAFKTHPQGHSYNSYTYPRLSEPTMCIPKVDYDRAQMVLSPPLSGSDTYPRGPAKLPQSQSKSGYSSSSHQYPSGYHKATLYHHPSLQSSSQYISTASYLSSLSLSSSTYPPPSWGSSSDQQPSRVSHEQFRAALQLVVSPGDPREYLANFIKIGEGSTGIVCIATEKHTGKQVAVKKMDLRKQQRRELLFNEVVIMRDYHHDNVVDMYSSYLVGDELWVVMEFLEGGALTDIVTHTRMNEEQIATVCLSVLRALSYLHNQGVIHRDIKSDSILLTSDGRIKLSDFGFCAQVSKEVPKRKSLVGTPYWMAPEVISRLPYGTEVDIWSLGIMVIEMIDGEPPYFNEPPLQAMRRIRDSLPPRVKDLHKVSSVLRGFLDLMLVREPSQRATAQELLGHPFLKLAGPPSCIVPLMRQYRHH
Procedure, shortened: as §1

[2] = target: T19, ABL1(F317I)-nonphosphorylated (Homo sapiens, UniProt P00519, F317I)
T19 construct: purchased DiscoveRx Corporation (KinomeScan)
Procedure, shortened: as §1

CHEK2 = target: T20, CHEK2 (Homo sapiens, UniProt O96017)
T20 construct: purchased DiscoveRx Corporation (KinomeScan)
Procedure, shortened: as §1

TGFBR1 = target: T21, TGFBR1 (Homo sapiens, UniProt P36897)
T21 construct: purchased DiscoveRx Corporation (KinomeScan)
Procedure, shortened: as §1

SGK3 = target: T22, SGK3 (Homo sapiens, UniProt Q96BR1)
T22 construct: purchased DiscoveRx Corporation (KinomeScan)
Procedure, shortened: as §1

PRKCE = target: T23, PRKCE (Homo sapiens, UniProt Q02156)
T23 construct: purchased DiscoveRx Corporation (KinomeScan)
Procedure, shortened: as §1

GAK = target: T24, GAK (Homo sapiens, UniProt O14976)
T24 construct: purchased DiscoveRx Corporation (KinomeScan)
T24 sequence (O14976 whole entry): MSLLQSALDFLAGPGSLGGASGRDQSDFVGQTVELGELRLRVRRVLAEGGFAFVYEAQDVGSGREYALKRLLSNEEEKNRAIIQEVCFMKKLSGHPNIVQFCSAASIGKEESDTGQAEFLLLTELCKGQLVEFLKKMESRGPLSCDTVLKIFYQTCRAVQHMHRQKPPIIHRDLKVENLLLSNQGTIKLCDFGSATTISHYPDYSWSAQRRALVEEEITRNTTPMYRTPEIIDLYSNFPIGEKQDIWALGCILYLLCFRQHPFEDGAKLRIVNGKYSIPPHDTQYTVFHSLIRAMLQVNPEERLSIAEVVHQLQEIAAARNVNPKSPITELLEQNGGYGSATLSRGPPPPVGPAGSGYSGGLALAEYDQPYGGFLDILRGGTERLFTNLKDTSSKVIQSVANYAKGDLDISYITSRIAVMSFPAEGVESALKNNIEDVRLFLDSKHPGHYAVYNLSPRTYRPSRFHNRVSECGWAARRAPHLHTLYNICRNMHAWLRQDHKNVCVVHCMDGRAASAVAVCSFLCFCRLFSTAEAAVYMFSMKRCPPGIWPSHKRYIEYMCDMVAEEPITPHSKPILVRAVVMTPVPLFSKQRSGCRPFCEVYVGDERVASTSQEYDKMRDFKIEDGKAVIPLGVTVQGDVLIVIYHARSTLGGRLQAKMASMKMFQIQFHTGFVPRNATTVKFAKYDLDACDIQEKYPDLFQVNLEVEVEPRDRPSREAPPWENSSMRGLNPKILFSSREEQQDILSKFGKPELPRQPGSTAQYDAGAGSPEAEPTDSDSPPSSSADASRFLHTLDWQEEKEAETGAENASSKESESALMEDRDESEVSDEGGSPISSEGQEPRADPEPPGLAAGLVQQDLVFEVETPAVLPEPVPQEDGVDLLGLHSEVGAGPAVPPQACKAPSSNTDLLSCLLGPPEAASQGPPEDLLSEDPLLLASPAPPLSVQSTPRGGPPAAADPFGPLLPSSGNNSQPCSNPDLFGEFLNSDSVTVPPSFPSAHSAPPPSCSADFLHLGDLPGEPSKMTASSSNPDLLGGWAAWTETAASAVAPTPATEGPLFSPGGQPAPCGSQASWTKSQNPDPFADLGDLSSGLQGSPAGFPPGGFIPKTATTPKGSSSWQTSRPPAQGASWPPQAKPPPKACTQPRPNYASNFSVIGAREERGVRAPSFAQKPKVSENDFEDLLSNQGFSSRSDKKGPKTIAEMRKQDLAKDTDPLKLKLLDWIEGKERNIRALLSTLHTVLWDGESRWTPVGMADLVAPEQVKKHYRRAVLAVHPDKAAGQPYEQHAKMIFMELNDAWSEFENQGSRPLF
Procedure, shortened: as §1

STK33 = target: T25, STK33 (Homo sapiens, UniProt Q9BYT3)
T25 construct: purchased DiscoveRx Corporation (KinomeScan)
Procedure, shortened: as §1

BTK = target: T26, BTK (Homo sapiens, UniProt Q06187)
T26 construct: purchased DiscoveRx Corporation (KinomeScan)
T26 sequence (Q06187 whole entry): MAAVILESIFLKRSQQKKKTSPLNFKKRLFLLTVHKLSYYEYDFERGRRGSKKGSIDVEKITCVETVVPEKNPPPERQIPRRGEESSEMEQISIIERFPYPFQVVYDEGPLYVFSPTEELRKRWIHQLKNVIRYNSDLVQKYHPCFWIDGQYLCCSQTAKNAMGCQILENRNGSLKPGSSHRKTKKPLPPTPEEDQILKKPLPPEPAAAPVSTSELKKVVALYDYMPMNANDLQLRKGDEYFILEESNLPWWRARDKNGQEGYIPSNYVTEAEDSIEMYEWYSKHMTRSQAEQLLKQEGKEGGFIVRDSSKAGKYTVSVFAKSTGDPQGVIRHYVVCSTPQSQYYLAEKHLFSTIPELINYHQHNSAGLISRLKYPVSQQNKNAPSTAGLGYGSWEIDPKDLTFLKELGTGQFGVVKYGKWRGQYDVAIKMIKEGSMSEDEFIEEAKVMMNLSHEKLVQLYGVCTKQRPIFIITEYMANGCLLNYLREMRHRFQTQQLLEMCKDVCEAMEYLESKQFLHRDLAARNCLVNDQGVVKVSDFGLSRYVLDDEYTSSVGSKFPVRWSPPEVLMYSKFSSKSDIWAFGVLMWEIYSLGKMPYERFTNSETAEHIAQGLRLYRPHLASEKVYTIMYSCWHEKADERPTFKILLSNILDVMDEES
Procedure, shortened: as §1

[3] = target: T27, RPS6KA4(kin.Dom.2-C-termimal) (Homo sapiens, UniProt O75676)
T27 construct: kin.Dom.2; purchased DiscoveRx Corporation
Procedure, shortened: as §1

TLK1 = target: T28, TLK1 (Homo sapiens, UniProt Q9UKI8)
T28 construct: purchased DiscoveRx Corporation (KinomeScan)
Procedure, shortened: as §1

PIK3CA (H1047Y) = target: T29, PIK3CA (H1047Y) (Homo sapiens, UniProt P42336, H1047Y)
T29 construct: purchased DiscoveRx Corporation (KinomeScan)
Procedure, shortened: as §1

PCTK1 = target: T30, PCTK1 (Homo sapiens, UniProt Q00536)
T30 construct: purchased DiscoveRx Corporation (KinomeScan panel)
Procedure, shortened: as §1

LTK = target: T31, LTK (Homo sapiens, UniProt P29376)
T31 construct: purchased DiscoveRx Corporation (KinomeScan)
Procedure, shortened: as §1

[4] = target: T32, ABL1(Y253F)-phosphorylated (Homo sapiens, UniProt P00519, Y253F)
T32 construct: purchased DiscoveRx Corporation (KinomeScan)
Procedure, shortened: as §1

MST1R = target: T33, MST1R (Homo sapiens, UniProt Q04912)
T33 construct: purchased DiscoveRx Corporation (KinomeScan)
Procedure, shortened: as §1

EGFR(G719S) = target: T34, EGFR(G719S) (Homo sapiens, UniProt P00533, G719S)
T34 construct: purchased DiscoveRx Corporation (KinomeScan)
Procedure, shortened: as §1

BRAF(V600E) = target: T35, BRAF(V600E) (Homo sapiens, UniProt P15056, V600E)
T35 construct: purchased DiscoveRx Corporation (KinomeScan)
Procedure, shortened: as §1

CCOP(=O)(CN1CCC(COc2cc3nccc(Oc4ccc(NC(=O)C5(C(=O)Nc6ccc(F)cc6)CC5)cc4F)c3cc2OC)CC1)OCC [Example 10, N1-[4-[[7-[[1-(diethoxyphosphorylmethyl)-4-piperidinyl]methoxyl]-6-methoxyl-4-quinolyl]oxyl]-3-fluorophenyl]-N1′-(4-fluorophenyl)cyclopropane-1,1-dicarboxamide]
% Ctrl@1000 nM (PIM3): 67 % Ctrl
% Ctrl@1000 nM (DRAK1): 100 % Ctrl
% Ctrl@1000 nM (CAMK1): 78 % Ctrl
% Ctrl@1000 nM (CAMK2D): 94 % Ctrl
% Ctrl@1000 nM (MLCK): 100 % Ctrl
% Ctrl@1000 nM [1]: 69 % Ctrl
% Ctrl@1000 nM (PLK1): 100 % Ctrl
% Ctrl@1000 nM (DLK): 52 % Ctrl
% Ctrl@1000 nM (PRKD3): 88 % Ctrl
% Ctrl@1000 nM (P38-beta): 87 % Ctrl
% Ctrl@1000 nM (PKMYT1): 100 % Ctrl
% Ctrl@1000 nM (FLT3(D835H)): 0.6 % Ctrl
% Ctrl@1000 nM (PIK3CA(E545A)): 74 % Ctrl
% Ctrl@1000 nM (PIK3CA (H1047L)): 100 % Ctrl
% Ctrl@1000 nM (CDKL2): 100 % Ctrl
% Ctrl@1000 nM (IKK-beta): 100 % Ctrl
% Ctrl@1000 nM (BMPR1A): 100 % Ctrl
% Ctrl@1000 nM (PKA7): 100 % Ctrl
% Ctrl@1000 nM [2]: 42 % Ctrl
% Ctrl@1000 nM (CHEK2): 35 % Ctrl
% Ctrl@1000 nM (TGFBR1): 100 % Ctrl
% Ctrl@1000 nM (SGK3): 75 % Ctrl
% Ctrl@1000 nM (PRKCE): 100 % Ctrl
% Ctrl@1000 nM (GAK): 100 % Ctrl
% Ctrl@1000 nM (STK33): 46 % Ctrl
% Ctrl@1000 nM (BTK): 51 % Ctrl
% Ctrl@1000 nM [3]: 100 % Ctrl
% Ctrl@1000 nM (TLK1): 88 % Ctrl
% Ctrl@1000 nM (PIK3CA (H1047Y)): 63 % Ctrl
% Ctrl@1000 nM (PCTK1): 100 % Ctrl
% Ctrl@1000 nM (LTK): 26 % Ctrl
% Ctrl@1000 nM [4]: 32 % Ctrl
% Ctrl@1000 nM (MST1R): 4 % Ctrl
% Ctrl@1000 nM (EGFR(G719S)): 81 % Ctrl
% Ctrl@1000 nM (BRAF(V600E)): 100 % Ctrl
